Assay results reported in PMC9704608, “Anti-leishmanial physalins—Phytochemical investigation, in vitro evaluation against clinical and MIL-resistant L. tropica strains and in silico studies” (PLOS ONE, 2022).
Where two headings read alike, the source gives them in different places.

Assays:
L. major promastigotes = experiment: Promastigote growth inhibition assay (MTT), L. major; type: cell-based, Leishmania major; conditions: for IC50: Leishmania major; for IC50 / L. major IC50 (μM± SD): 72 h; for anti-leishmanial activity against promastigotes of L. major (in words): in vitro
Procedure: (§1) L. major and L. tropica (Clinical isolates) promastigotes were grown at […] in RPMI-1640 (Sigma) medium containing 10% of heat-inactivated (56°C for 30 min) fetal bovine serum. Cell viability was initially evaluated by wet mount method by observing the live cells under compound microscope. Parasite growth was assessed by counting live / motile promastigotes in a Neubauer chamber. Viable cell count was used for the further experimentations (treatments).
(§2) The promastigotes in their log phase were used in 96-well plates. 1 × 10^6 wild-type and resistant promastigotes were dispensed in 96 96-well plates, and incubated with tested compounds at a range concentration of 200–10 μM at 27°C for 72 h. After incubation of 72 h, MTT dye (3-(4,5-dimethylthiazol-2-yl)-2,5-diphenyl-2H-tetrazolium bromide) was added and further incubate it for 3–4 h. Amphotericin B, pantamidine and miltefosine were used as the positive control, untreated promastigotes were used as negative control moreover DMSO control was also added in the study as a stock solution of the compounds that were prepared in DMSO. All the experiments were performed in triplicates. After completion of the experiment the absorbance by Multiskan ascent plate reader at 452 nm and percent inhibition was calculated by the following formula.
(§3) Cytotoxic concentration (%) = [100- (Absorbance of test)/ (Absorbance of solvent control) ×100] %.

[1] = Cytotoxicity (MTT) against BJ cell line; type: cell-based, human; conditions: pure compounds, human fibroblast, 48 h, read-out: BJ cell line CC50 (μM± SD)
Procedure: (§4) The cytotoxicity of the test compounds against normal cell lines was evaluated through MTT (3-[4, 5-dimethylthiazole-2-yl]-2, 5-diphenyl-tetrazolium bromide] colorimetric assay in 96-well flat-bottomed microplates. The 3T3 (mouse fibroblast) and BJ (human fibroblast) were cultured Dulbecco’s Modified Eagle Medium, supplemented with 5% of fetal bovine serum (FBS), 100 IU/mL of penicillin and 100 μg/mL of streptomycin in 75 cm2 flasks, and then incubated in 5% CO2 incubator at 37°C. The growing cells were counted by using a haemocytometer, and diluted with the particular medium. The 5x10^4 cells/mL of the cell culture was prepared, and a sample […] was introduced into each well. […] After 48 hours, 200 μL MTT (0.5 mg/mL) was added, and the incubation was further continued for 4 hrs. After that time, 100 μL of DMSO was added to each well. The absorbance was measured using a micro plate reader (Spectra Max Plus, Molecular Devices, CA, USA) at 570 nm for the extent of MTT reduction to formazan within the cells. The cytotoxicity was recorded as CC50 against cells by using Soft- Max Pro software. Doxorubicin and cycloheximide were used as positive control. The experiments were run in triplicate.

[2] = tested on: BJ (human fibroblast) cells; experiment: Cytotoxicity (MTT) against BJ cell line; type: cell-based; conditions: for L. tropica SI (CC50/ IC50): CC50 BJ cell line / IC50 L. tropica; for IC50: Homo sapiens, Fibroblast, read-out: BJ (human fibroblast) IC50 (μM± SD)
Procedure: as §4

L. tropica promastigotes = experiment: Promastigote growth inhibition assay (MTT), L. tropica clinical isolates; type: cell-based, Leishmania tropica; conditions: for IC50: Leishmania tropica; for IC50 / L. tropica IC50 (μM± SD): 72 h
Procedure: as §1, §2, §3

[3] = tested on: 3T3 (mouse fibroblast) cells; experiment: Cytotoxicity (MTT) against 3T3 cell line; type: cell-based; conditions: for IC50: Mus musculus, Fibroblast, read-out: 3T3 (mouse fibroblast) IC50 (μM ± SD)
Procedure: (§5) The cytotoxicity of the test compounds against normal cell lines was evaluated through MTT (3-[4, 5-dimethylthiazole-2-yl]-2, 5-diphenyl-tetrazolium bromide] colorimetric assay in 96-well flat-bottomed microplates. The 3T3 (mouse fibroblast) and BJ (human fibroblast) were cultured Dulbecco’s Modified Eagle Medium, supplemented with 5% of fetal bovine serum (FBS), 100 IU/mL of penicillin and 100 μg/mL of streptomycin in 75 cm2 flasks, and then incubated in 5% CO2 incubator at 37°C. The growing cells were counted by using a haemocytometer, and diluted with the particular medium. The 5x10^4 cells/mL of the cell culture was prepared, and a sample […] was introduced into each well. The medium was removed after overnight incubation, and 200 μL of fresh medium was added with different concentrations of compounds (1–30 μM). After 48 hours, 200 μL MTT (0.5 mg/mL) was added, and the incubation was further continued for 4 hrs. After that time, 100 μL of DMSO was added to each well. The absorbance was measured using a micro plate reader (Spectra Max Plus, Molecular Devices, CA, USA) at 570 nm for the extent of MTT reduction to formazan within the cells. The cytotoxicity was recorded as CC50 against cells by using Soft- Max Pro software. Doxorubicin and cycloheximide were used as positive control. The experiments were run in triplicate.

[4] = Cytotoxicity (MTT) against 3T3 cell line; type: cell-based, mouse; conditions: pure compounds; mouse fibroblast, 48 h; read-out: 3T3 Cell line CC50 (μM± SD)
Procedure: as §5

[5] = tested on: MIL-resistant L. tropica promastigotes; experiment: Growth inhibition assay (MTT) against MIL-resistant line; type: cell-based, Leishmania tropica; conditions: 72 h; for MIL Resistant L. tropica IC50 (μM± SD): miltefosine-unresponsive strain, promastigotes
Procedure: as §2, §3
Promastigote cultures tL. tropica (Clinical isolates) were maintained at 26°C in RPMI-1640 medium containing 15% FBS and 1% penicillin–streptomycin mixture.
Generation of miltefosine-unresponsive strain was carried under high MIL pressure by in vitro passage with a stepwise increase in the MIL concentration. At each step, parasites were cultured and passaged every 3–4 days at an initial concentration of 5x10^5 promastigotes/mL in order to achieve -stable growth as compared to the wildtype isolate. Growth rates were measured for resistant populations and compared with the WT strain. Parasites were counted at an initial concentration of 5x10^5 parasites/mL and growth was measured daily using a Neubauer chamber until the population reached the stationary phase. Furthermore, the fluorescence microscopic investigations via DAPI stain were also carried out to supplement the study.

[6] = CC50 BJ fibroblast cell line / IC50 L. major
[7] = CC50 BJ fibroblast cell line / IC50 L. tropica
[8] = pure compounds, standard drugs, promastigotes
[9] = pure compounds, standard drugs, promastigotes, clinical isolate
[10] = CC50 3T3 mouse fibroblast cell line / IC50 L. major
[11] = read-out: L. major IC50 (μM± SD)
[12] = read-out: L. tropica IC50 (μM± SD)

Row | Compound | L. major SI (CC50/ IC50) (L. major promastigotes; [6]) | L. tropica SI (CC50/ IC50) [2] | L. tropica SI (CC50/ IC50) (L. tropica promastigotes; [7]) | anti-leishmanial activity against promastigotes of L. major (in words) (L. major promastigotes) | L. major IC50 (μM± SD) (L. major promastigotes; [8]) | L. tropica IC50 (μM± SD) (L. tropica promastigotes; [9]) | L. major SI (CC50/ IC50) (L. major promastigotes; [10]) | IC50 (L. major promastigotes; [11]) [µM] | CC50 at 48 h [1] [µM] | IC50 [2] [µM] | IC50 [3] [µM] | CC50 at 48 h [4] [µM] | IC50 (L. tropica promastigotes; [12]) [µM] | MIL Resistant L. tropica IC50 (μM± SD) [5] | other results
1 | C[C@@H]1[C@H](O)[C@@H](C)/C=C/C=C/C=C/C=C/C=C/C=C/C=C/[C@H](O[C@@H]2O[C@H](C)[C@@H](O)[C@H](N)[C@@H]2O)C[C@@H]2O[C@](O)(C[C@@H](O)C[C@@H](O)[C@H](O)CC[C@@H](O)C[C@@H](O)CC(=O)O[C@H]1C)C[C@H](O)[C@H]2C(=O)O [Amphotericin B, reference compound] | 4.37 | 4.69 | 4.69 |  |  |  |  |  |  |  |  |  |  |  | IC50 (L. major promastigotes; extracts, fractions, standard drugs, promastigotes, read-out: L. major IC50 (μg/ml ± SD)): 3.14 ± 0.04 µg/mL; IC50 (L. major promastigotes; pure compounds, standard drugs, promastigotes, read-out: L. major IC50 (μM± SD)): 3.39 ± 0.043 µM; CC50 at 48 h ([1]; BJ fibroblast cells): 16.1 µM; IC50 (L. tropica promastigotes; extracts, fractions, standard drugs, promastigotes, read-out: L. tropica IC50 (μg/ml ± SD)): 3.16 ± 0.04 µg/mL; IC50 (L. tropica promastigotes; pure compounds, standard drugs, promastigotes, clinical isolate, read-out: L. tropica IC50 (μM± SD)): 3.42 ± 0.04 µM
2 | CC12C(=O)C=CC=C1C(O)CC1C(=O)C3=NCC4C(=O)OC5CC4(C)C3C3(O)C(O)(CCC12)C(=O)OC53C (centres unmarked) [Compound 1, Aminophysalin B] |  |  |  | no significant activity | Inactive | Inactive |  |  |  |  |  |  |  |  | BJ (human fibroblast) IC50 (μM± SD) ([2]; cytotoxicity of compounds 1-9): Non cytotoxic; BJ cell line CC50 (μM± SD) ([2]; pure compounds, human fibroblast, 48 h): Non cytotoxic; 3T3 (mouse fibroblast) IC50 (μM ± SD) ([3]; cytotoxicity of compounds 1-9): Non cytotoxic
3 | C[C@]12C(=O)C=CCC1=CC[C@@H]1[C@@H]2CC[C@]2(O)C(=O)O[C@@]3(C)[C@H]4C[C@]5(C)[C@@H](CO[C@@]16O[C@@]32[C@H]5C6=O)C(=O)O4 [Compound 2, Physalin B] | 3.5 | 0.8 | 0.8 |  |  |  | 3.28 | 3.04 ± 1.12 | 10.8 ± 1.5 | 27.6 ± 0.9 | 10 ± 0.4 | 10 ± 0.4 | 13.33 ± 0.098 | inactive | L. major SI (CC50/ IC50) ([2]; CC50 BJ cell line / IC50 L. major): 3.5
4 | CC12CC3OC(=O)C1COC14OC5(C2C1=O)C(O)(CCC1C4CC2OC24CC=CC(=O)C14C)C(=O)OC35C (stereo not drawn) [Compound 3, 5β, 6β-epoxyphysalin B] | 7.34 | 1.48 | 1.48 |  |  |  | 0.19 | 3.76 ± 0.85 | 27.6 | 10.8 ± 1.5 | 0.72 ± 0.5 | 0.72 ± 0.5 | 18.5 ± 0.28 | inactive | L. tropica SI (CC50/ IC50) ([3]; CC50 3T3 cell line / IC50 L. tropica): 0.038; L. tropica SI (CC50/ IC50) (L. tropica promastigotes; CC50 3T3 mouse fibroblast cell line / IC50 L. tropica): 0.038
5 | CCOC12CC=CC(=O)C1(C)C1CCC3(O)C(=O)OC4(C)C5CC6(C)C(COC7(OC34C6C7=O)C1CC2O)C(=O)O5 (stereo not drawn) [Compound 4, 5α-ethoxy-6ß-hydroxy-5,6-dihydrophysalin B] |  |  |  | no significant activity | Inactive | Inactive |  |  |  |  |  |  |  |  | CC50 [1]: 14.2 ± 0.8 µM; IC50 ([2]; cytotoxicity of compounds 1-9): < 50 µM; IC50 ([3]; cytotoxicity of compounds 1-9): 19.6 ± 0.8 µM; CC50 [4]: 19.6 ± 0.8 µM; IC50 ([5]; Leishmania tropica, read-out: MIL Resistant L. tropica IC50 (μM± SD)): 74.7 ± 0.81 µM
